Patent US10105357B2, “Indication of antibiotic drugs for preparation of cancer inhibition pharmaceutical composition” (LAUNX BIOMEDICAL CO., LTD., priority 2014, dated 2018)
Structures can show the parent of a compound that is named as a salt. Where two headings read alike, the source gives them in different places.

Key:
Format in all cases: cell-based, human
[1] = tested on: HI650 (Lung Adenocarcinoma); experiment: Cell viability analysis, lung cancer HI650; details: for viability at 10 µM: Homo sapiens, NCI-H1650, 72 h
[2] = tested on: A549 (Lung Adenocarcinoma); experiment: Cell viability analysis, lung cancer A549; details: for viability at 10 µM: Homo sapiens, A549, 72 h
[3] = tested on: PC3 (p53−) (Prostate Adenocarcinoma); experiment: Cell viability analysis, prostate cancer PC3; details: for viability at 10 µM: Homo sapiens, 72 h
[4] = tested on: LoVo (Colorectal Adenocarcinoma); experiment: Cell viability analysis, colon cancer LoVo; details: for viability at 10 µM: Homo sapiens, LoVo, 72 h, read-out: cell viability (survival rate), LoVo, drug 10 μM, 72 hours, WST-1, OD450 nm
[5] = tested on: HepG2 (Hepatocellular Carcinoma); experiment: Cell viability analysis, hepatic cancer HepG2; details: for viability at 10 µM: Homo sapiens, HepG2, 72 h
[6] = tested on: MCF7 (Mammary Gland, Adenocarcinoma); experiment: Cell viability analysis, breast cancer MCF7; details: for viability at 10 µM: Homo sapiens, MCF7, 72 h
cancer cell lines = experiment: Cell viability analysis (WST-1) on cancer cell lines; details: drug 10 μM, 72 hours, WST-1; Table 3
[7] = tested on: HeLa (Cervix Adenocarcinoma); experiment: Cell viability analysis, cervical cancer HeLa; details: for viability at 10 µM: Homo sapiens, HeLa, 72 h
[8] = tested on: HL-60 (Acute Promyelocytic Leukemia); experiment: Cell viability analysis, leukemia HL-60; details: for viability at 10 µM: Homo sapiens, HL-60, 72 h
[9] = tested on: TSGH-8301 (Urinary Bladder Carcinoma); experiment: Cell viability analysis, bladder cancer TSGH-8301; details: for viability at 10 µM: Homo sapiens, 72 h
[10] = tested on: A375 (Amelanotic Melanoma); experiment: Cell viability analysis, skin cancer A375; details: for viability at 10 µM: Homo sapiens, A-375, 72 h
[11] = tested on: MKN-45 (Gastric Adenocarcinoma); experiment: Cell viability analysis, gastric cancer MKN-45; details: for viability at 10 µM: Homo sapiens, MKN-45, 72 h
[12] = tested on: AGS (Gastric Adenocarcinoma); experiment: Cell viability analysis, gastric cancer AGS; details: for viability at 10 µM: Homo sapiens, 72 h
[13] = read-out: cell viability (survival rate), H1650, drug 10 μM, 72 hours, WST-1, OD450 nm
[14] = read-out: cell viability (survival rate), A549, drug 10 μM, 72 hours, WST-1, OD450 nm
[15] = read-out: cell viability (survival rate), PC3, drug 10 μM, 72 hours, WST-1, OD450 nm
[16] = read-out: cell viability (survival rate), HepG2, drug 10 μM, 72 hours, WST-1, OD450 nm
[17] = read-out: cell viability (survival rate), MCF7, drug 10 μM, 72 hours, WST-1, OD450 nm
[18] = read-out: cell viability (survival rate), HeLa, drug 10 μM, 72 hours, WST-1, OD450 nm
[19] = read-out: cell viability (survival rate), HL-60, drug 10 μM, 72 hours, WST-1, OD450 nm
[20] = read-out: cell viability (survival rate), TSGH, drug 10 μM, 72 hours, WST-1, OD450 nm
[21] = read-out: cell viability (survival rate), A375, drug 10 μM, 72 hours, WST-1, OD450 nm
[22] = read-out: cell viability (survival rate), MKN-45, drug 10 μM, 72 hours, WST-1, OD450 nm
[23] = read-out: cell viability (survival rate), AGS, drug 10 μM, 72 hours, WST-1, OD450 nm
[24] = drug 10 μM, 72 hours, WST-1, OD450 nm, read-out: cell viability (survival rate), H1650
[25] = drug 10 μM, 72 hours, WST-1, OD450 nm, read-out: cell viability (survival rate), A549
[26] = drug 10 μM, 72 hours, WST-1, OD450 nm, read-out: cell viability (survival rate), PC3
[27] = drug 10 μM, 72 hours, WST-1, OD450 nm, read-out: cell viability (survival rate), HepG2
[28] = drug 10 μM, 72 hours, WST-1, OD450 nm, read-out: cell viability (survival rate), MCF7
[29] = drug 10 μM, 72 hours, WST-1, OD450 nm, read-out: cell viability (survival rate), HeLa
[30] = drug 10 μM, 72 hours, WST-1, OD450 nm, read-out: cell viability (survival rate), HL-60
[31] = drug 10 μM, 72 hours, WST-1, OD450 nm, read-out: cell viability (survival rate), TSGH
[32] = drug 10 μM, 72 hours, WST-1, OD450 nm, read-out: cell viability (survival rate), A375
[33] = drug 10 μM, 72 hours, WST-1, OD450 nm, read-out: cell viability (survival rate), MKN-45
[34] = drug 10 μM, 72 hours, WST-1, OD450 nm, read-out: cell viability (survival rate), AGS

Row | SMILES | viability at 10 µM [1, 13] [%] | viability at 10 µM [2, 14] [%] | viability at 10 µM [3, 15] [%] | viability at 10 µM [4] [%] | viability at 10 µM [5, 16] [%] | viability at 10 µM [6, 17] [%] | inhibition effect on different cancer cell lines (cancer cell lines) | viability at 10 µM [7, 18] [%] | viability at 10 µM [8, 19] [%] | viability at 10 µM [9, 20] [%] | viability at 10 µM [10, 21] [%] | viability at 10 µM [11, 22] [%] | viability at 10 µM [12, 23] [%] | also measured
1 | C[C@@H]1CN(c2c(F)c(N)c3c(=O)c(C(=O)O)cn(C4CC4)c3c2F)C[C@H](C)N1 [Sparfloxacin] | 88.5 | 86.5 | 50.1 | 97 | 97.6 | 56.3 | significant inhibition effect | 88.3 | 99.3 | 68.1 | 82.6 | 57.5 | 79.9 | 
2 | COc1ncnc(NS(=O)(=O)c2ccc(N)cc2)c1OC [Sulfadoxine (Sulphadoxine), Sulfadoxine] |  |  |  | 92.9 |  |  | significant inhibition effect |  |  |  |  |  |  | viability at 10 µM [1, 24]: 62.2%; viability at 10 µM [2, 25]: 96.6%; viability at 10 µM [3, 26]: 119%; viability at 10 µM [5, 27]: 90.5%; viability at 10 µM [6, 28]: 132%; viability at 10 µM [7, 29]: 78.2%; viability at 10 µM [8, 30]: 111%; viability at 10 µM [9, 31]: 64.3%; viability at 10 µM [10, 32]: 65.5%; viability at 10 µM [11, 33]: 87.4%; viability at 10 µM [12, 34]: 91.1%
3 | CC(C)[C@H](N)C(=O)OCCOCn1cnc2c(=O)[nH]c(N)nc21 [Valaciclovir HCl] |  |  |  | 97 |  |  | significant inhibition effect |  |  |  |  |  |  | viability at 10 µM [1, 24]: 90.6%; viability at 10 µM [2, 25]: 126%; viability at 10 µM [3, 26]: 68.3%; viability at 10 µM [5, 27]: 110%; viability at 10 µM [6, 28]: 67.8%; viability at 10 µM [7, 29]: 109%; viability at 10 µM [8, 30]: 103%; viability at 10 µM [9, 31]: 83.9%; viability at 10 µM [10, 32]: 95.6%; viability at 10 µM [11, 33]: 91.6%; viability at 10 µM [12, 34]: 110%
4 | [O-][n+]1ccccc1[S-].[O-][n+]1ccccc1[S-].[Zn+2] [Pyrithione zinc] |  |  |  |  |  |  | significant inhibition effect |  |  |  |  |  |  | cell viability (survival rate), H1650 [1]: 60.6; cell viability (survival rate), A549 [2]: 29.7; cell viability (survival rate), PC3 [3]: 24.3; cell viability (survival rate), LoVo [4]: 45.5; cell viability (survival rate), HepG2 [5]: 70.4; cell viability (survival rate), MCF7 [6]: 51.8; cell viability (survival rate), HeLa [7]: 47.4; cell viability (survival rate), HL-60 [8]: 34.5; cell viability (survival rate), TSGH [9]: 28.7; cell viability (survival rate), A375 [10]: 27.1; cell viability (survival rate), MKN-45 [11]: 57.4; cell viability (survival rate), AGS [12]: 35.4
5 | C[C@]12C=CC(=O)C=C1CC[C@@H]1[C@@H]2[C@@H](O)C[C@@]2(C)[C@H]1CC[C@]2(O)C(=O)CO [Prednisolone (Hydroretrocortine), Prednisolone] | 82.5 | 71.3 | 83.3 | 92.5 | 82.7 | 45.5 | significant inhibition effect | 78.7 | 99 | 86.2 | 71 | 67.8 | 124 | 
6 | Cc1cc(NS(=O)(=O)c2ccc(N)cc2)no1 [Sulfamethoxazole] | 85.8 | 43.9 | 44.9 | 71.7 | 115 | 46.1 | significant inhibition effect | 87.8 | 99.4 | 62.1 | 44.3 | 60.7 | 67.7 | 
7 | Clc1cccc(Cl)c1N=C1NCCN1 [Clonidine hydrochloride (Catapres), Clonidine hydrochloride] | 64.1 | 37.3 | 40.7 | 72.1 | 83.7 | 68.8 | significant inhibition effect | 72 | 128 | 28.5 | 62.5 | 48.8 | 36.4 | 
8 | CCC(C)(C)c1ccc(CC(C)CN2C[C@@H](C)O[C@@H](C)C2)cc1 (some centres unmarked) [Amorolfine Hydrochloride] | 79.6 | 104 | 104 | 99.7 | 91.6 | 104 | significant inhibition effect | 84.6 | 104 | 88.5 | 98.6 | 65.1 | 94.4 | 
9 | O=C(O)Cc1ccccc1Nc1c(Cl)cccc1Cl [Diclofenac Potassium] | 43.9 | 81.7 | 63.3 | 85 | 107 | 76.3 | significant inhibition effect | 76.1 | 96.3 | 122 | 51.5 | 40.5 | 91.4 | 
10 | CN1CCC(=C2c3ccccc3CCc3cccnc32)CC1 [Azatadine dimaleate] |  |  |  | 95.7 |  |  | significant inhibition effect |  |  |  |  |  |  | viability at 10 µM [1, 24]: 48.5%; viability at 10 µM [2, 25]: 123%; viability at 10 µM [3, 26]: 104%; viability at 10 µM [5, 27]: 84.5%; viability at 10 µM [6, 28]: 79.7%; viability at 10 µM [7, 29]: 72.2%; viability at 10 µM [8, 30]: 113%; viability at 10 µM [9, 31]: 78.5%; viability at 10 µM [10, 32]: 40.7%; viability at 10 µM [11, 33]: 83.4%; viability at 10 µM [12, 34]: 67.1%
11 | COc1cc(NS(=O)(=O)c2ccc(N)cc2)nc(OC)n1 [Sulphadimethoxine] | 83.1 | 100 | 94 | 70.8 | 90.3 | 94.3 | significant inhibition effect | 68.8 | 120 | 132 | 76 | 72 | 99.3 | 
